Data published in patent US12606569B2, “Alkaloid-containing compositions and uses thereof” (priority 2017, dated 2026).
Read-outs that look alike come from different tables or passages of the source.

Key:
[1] = type: physicochemical; conditions: for chemical stability of the component in buffers / degradation of the component at pH 2 and 10: 1% w/w purified loline extract, 0.2M buffers; for chemical stability of the component in buffers: except pH 2 and 10; for degradation of the component at pH 2 and 10: starting at 24 h
Description: 1% w/w solutions of purified loline extract at various pH and 0.2M buffers were used in this investigation. The solutions were maintained at 54° C. (±1° C.) and 70° C. (±1° C.) and pH remained at the target pH (±0.2 pH units). Samples were taken periodically over a 2-3 week period and analysed by GC-FID to determine NFL strength.

[2] = type: physicochemical

Row | Compound | stability on increasing or decreasing pH from pH 4 ([1]; 70° C.) | time after which the stability of NFL plateaus ([1]; 70° C., pH 2.6) | stability (degradation of NFL to loline) ([1]; 70° C., pH 4, acetic acid derived buffer, over 170 hours) | stability (degradation of NFL to loline) ([1]; 70° C., pH 4, citric acid buffer) | overall degradation rates ([2]; 50° C. compared with 70° C.) | conversion of NFL to loline, citric acid based system versus acetic acid derived buffer ([2]; both 50° C. and 70° C.) | chemical stability of the component in buffers [1] | degradation of the component at pH 2 and 10 [1]
1 | CN(C=O)C1C2CN3CCC(O2)[C@H]13 (stereo partly shown) [NFL, N-formylloline] | significant decrease in stability | approximately 100 hours | greatest stability | lower stability | reduced | higher degradation |  | 
2 | CC(=O)N(C)C1C2CN3CCC(O2)C13 (stereo not shown) [NAL, N-acetylloline] |  |  |  |  |  |  | chemically stable | small degradation
3 | CC(=O)NC1C2CN3CCC(O2)C13 (stereo not shown) [NANL, N-acetylnorloline] |  |  |  |  |  |  | chemically stable | small degradation
